The source of these data is ChEMBL document CHEMBL5212743, “Selectivity Literature for EUbOPEN Chemogenomics Library wave 3” (2023).

The target in experiment [1] is Serine/threonine-protein kinase PLK2 (Homo sapiens) (UniProt Q9NYY3). The experiment is described as follows: Selectivity interaction (KinomeScan (DiscoverX)) EUB0000698a PLK2. The settings on record: at 10 µM.
In experiment [2] the target is T1, Ephrin type-B receptor 6 (Homo sapiens) (UniProt O15197).
T1 sequence (whole entry): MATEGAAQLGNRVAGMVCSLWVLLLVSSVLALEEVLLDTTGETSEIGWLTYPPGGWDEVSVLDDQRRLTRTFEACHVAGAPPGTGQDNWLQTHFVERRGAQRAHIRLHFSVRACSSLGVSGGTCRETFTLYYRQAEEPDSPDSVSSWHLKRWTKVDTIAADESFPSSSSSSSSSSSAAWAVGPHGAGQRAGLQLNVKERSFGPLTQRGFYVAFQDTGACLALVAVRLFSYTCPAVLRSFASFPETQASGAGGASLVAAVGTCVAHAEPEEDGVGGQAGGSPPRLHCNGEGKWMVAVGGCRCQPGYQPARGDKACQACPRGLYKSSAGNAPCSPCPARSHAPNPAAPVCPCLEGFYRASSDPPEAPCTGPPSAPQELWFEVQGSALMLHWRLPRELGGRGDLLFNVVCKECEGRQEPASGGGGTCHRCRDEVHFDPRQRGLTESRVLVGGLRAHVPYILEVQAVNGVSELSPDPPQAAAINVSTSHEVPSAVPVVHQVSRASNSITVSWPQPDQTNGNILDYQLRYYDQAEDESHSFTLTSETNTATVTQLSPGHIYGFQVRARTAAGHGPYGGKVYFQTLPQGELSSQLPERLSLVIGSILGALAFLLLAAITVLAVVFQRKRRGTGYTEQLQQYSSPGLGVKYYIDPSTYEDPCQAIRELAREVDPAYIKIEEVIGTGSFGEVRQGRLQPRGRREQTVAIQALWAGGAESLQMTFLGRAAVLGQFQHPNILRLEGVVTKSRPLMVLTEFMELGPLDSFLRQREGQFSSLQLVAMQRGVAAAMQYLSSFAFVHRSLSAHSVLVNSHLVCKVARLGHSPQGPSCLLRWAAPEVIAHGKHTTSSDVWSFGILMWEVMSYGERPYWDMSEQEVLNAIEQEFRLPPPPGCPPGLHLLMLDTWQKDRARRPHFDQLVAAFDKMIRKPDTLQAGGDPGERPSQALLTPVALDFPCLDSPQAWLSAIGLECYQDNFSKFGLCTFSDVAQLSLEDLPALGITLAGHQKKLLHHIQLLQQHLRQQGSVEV
The experiment is described as follows: Selectivity interaction (KinomeScan (DiscoverX)) EUB0000698a EPHB6. The settings on record: at 10 µM.

The target of experiment [3] is Serine/threonine-protein kinase 3 (Homo sapiens) (UniProt Q13188). The experiment is described as follows: Selectivity interaction (KinomeScan (DiscoverX)) EUB0000698a STK3. As to conditions: at 10 µM.
Experiment [4] deals with Serine/threonine-protein kinase TAO1 (Homo sapiens) (UniProt Q7L7X3). The experiment is described as follows: Selectivity interaction (KinomeScan (DiscoverX)) EUB0000702a TAOK1. As to conditions: at 1 µM.
Experiment [5] concerns the target Tyrosine-protein kinase SYK (Homo sapiens, UniProt P43405). The experiment is described as follows: Selectivity interaction (KinomeScan (DiscoverX)) EUB0000702a SYK. As to conditions: at 1 µM.
Experiment [6] deals with T2, Phosphatidylinositol 5-phosphate 4-kinase type-2 beta (Homo sapiens) (UniProt P78356).
T2 sequence (whole entry): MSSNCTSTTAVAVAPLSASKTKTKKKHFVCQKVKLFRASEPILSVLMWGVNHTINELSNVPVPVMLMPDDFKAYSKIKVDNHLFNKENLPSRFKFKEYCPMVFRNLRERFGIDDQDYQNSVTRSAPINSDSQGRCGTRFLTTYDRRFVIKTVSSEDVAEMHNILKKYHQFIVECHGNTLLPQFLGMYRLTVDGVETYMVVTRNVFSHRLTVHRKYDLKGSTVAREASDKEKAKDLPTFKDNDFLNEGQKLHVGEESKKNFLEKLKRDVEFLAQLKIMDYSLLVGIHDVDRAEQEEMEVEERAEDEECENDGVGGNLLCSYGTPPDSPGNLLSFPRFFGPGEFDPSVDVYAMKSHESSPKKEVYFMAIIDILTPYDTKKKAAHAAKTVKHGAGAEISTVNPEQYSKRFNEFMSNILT
The experiment is described as follows: Selectivity interaction (KinomeScan (DiscoverX)) EUB0000702a PIP4K2B. As to conditions: at 1 µM.

The target in experiment [7] is Tyrosine-protein kinase Lck (Homo sapiens, UniProt P06239). The settings on record: at 1 µM.
Experiment [8] addresses T1, Ephrin type-B receptor 6 (Homo sapiens). As to conditions: at 1 µM.
The target in experiment [9] is Receptor-type tyrosine-protein kinase FLT3 (Homo sapiens) (UniProt P36888). The settings on record: at 1 µM.
Experiment [10] has as its target Tyrosine-protein kinase Blk (Homo sapiens, UniProt P51451). As to conditions: at 1 µM.
In experiment [11] the target is T3, Phosphatidylinositol 5-phosphate 4-kinase type-2 gamma (Homo sapiens) (UniProt Q8TBX8).
T3 sequence (whole entry): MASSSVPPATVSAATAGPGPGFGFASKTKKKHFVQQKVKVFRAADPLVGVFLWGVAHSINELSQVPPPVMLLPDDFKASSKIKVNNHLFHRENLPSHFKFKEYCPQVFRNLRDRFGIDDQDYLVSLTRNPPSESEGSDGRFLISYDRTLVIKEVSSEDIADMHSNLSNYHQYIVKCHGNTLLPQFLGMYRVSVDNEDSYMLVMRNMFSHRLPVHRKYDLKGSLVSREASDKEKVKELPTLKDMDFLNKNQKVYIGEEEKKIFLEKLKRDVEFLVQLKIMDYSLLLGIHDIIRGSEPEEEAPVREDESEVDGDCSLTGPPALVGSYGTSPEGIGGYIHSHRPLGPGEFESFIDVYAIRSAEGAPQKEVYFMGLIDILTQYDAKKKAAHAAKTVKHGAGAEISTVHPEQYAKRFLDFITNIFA
The experiment is described as follows: Selectivity interaction (KinomeScan (DiscoverX)) EUB0000169b PIP4K2C. The settings on record: at 1 µM.

Experiment [12] has as its target Serine/threonine-protein kinase PLK3 (Homo sapiens, UniProt Q9H4B4). The experiment is described as follows: Selectivity interaction (KinomeScan (DiscoverX)) EUB0000169b PLK3. The settings on record: at 1 µM.
Experiment [13] deals with Ribosomal protein S6 kinase beta-1 (Homo sapiens) (UniProt P23443). As to conditions: at 10 µM.
For experiment [14], the target named is Serine/threonine-protein kinase 17A (Homo sapiens, UniProt Q9UEE5). The experiment is described as follows: Selectivity interaction (NanoBRET assay (HEK293T cells)) EUB0000305b STK17A. On the technique in general: In BRET a luciferase serves as donor, and the signal depends on an acceptor being close.
The target of experiment [15] is Non-receptor tyrosine-protein kinase TYK2 (Homo sapiens, UniProt P29597). The experiment is described as follows: Selectivity interaction (Enzymatic assay) EUB0000178b TYK2.
Experiment [16] deals with Mitogen-activated protein kinase kinase kinase 2 (Homo sapiens) (UniProt Q9Y2U5). The experiment is described as follows: Selectivity interaction (KinomeScan (DiscoverX)) EUB0000178b MAP3K2. As to conditions: at 1 µM.
The next experiment deals with Aurora kinase B (Homo sapiens, UniProt Q96GD4). The experiment is described as follows: Selectivity interaction (Enzymatic assay) EUB0000178b AURKB.
For experiment [17], the target named is Dual specificity protein kinase CLK2 (Homo sapiens, UniProt P49760). The experiment is described as follows: Selectivity interaction (KinomeScan (DiscoverX)) EUB0000138c CLK2. The settings on record: at 100 nM.

Non-receptor tyrosine-protein kinase TYK2, sequence (P29597 whole entry): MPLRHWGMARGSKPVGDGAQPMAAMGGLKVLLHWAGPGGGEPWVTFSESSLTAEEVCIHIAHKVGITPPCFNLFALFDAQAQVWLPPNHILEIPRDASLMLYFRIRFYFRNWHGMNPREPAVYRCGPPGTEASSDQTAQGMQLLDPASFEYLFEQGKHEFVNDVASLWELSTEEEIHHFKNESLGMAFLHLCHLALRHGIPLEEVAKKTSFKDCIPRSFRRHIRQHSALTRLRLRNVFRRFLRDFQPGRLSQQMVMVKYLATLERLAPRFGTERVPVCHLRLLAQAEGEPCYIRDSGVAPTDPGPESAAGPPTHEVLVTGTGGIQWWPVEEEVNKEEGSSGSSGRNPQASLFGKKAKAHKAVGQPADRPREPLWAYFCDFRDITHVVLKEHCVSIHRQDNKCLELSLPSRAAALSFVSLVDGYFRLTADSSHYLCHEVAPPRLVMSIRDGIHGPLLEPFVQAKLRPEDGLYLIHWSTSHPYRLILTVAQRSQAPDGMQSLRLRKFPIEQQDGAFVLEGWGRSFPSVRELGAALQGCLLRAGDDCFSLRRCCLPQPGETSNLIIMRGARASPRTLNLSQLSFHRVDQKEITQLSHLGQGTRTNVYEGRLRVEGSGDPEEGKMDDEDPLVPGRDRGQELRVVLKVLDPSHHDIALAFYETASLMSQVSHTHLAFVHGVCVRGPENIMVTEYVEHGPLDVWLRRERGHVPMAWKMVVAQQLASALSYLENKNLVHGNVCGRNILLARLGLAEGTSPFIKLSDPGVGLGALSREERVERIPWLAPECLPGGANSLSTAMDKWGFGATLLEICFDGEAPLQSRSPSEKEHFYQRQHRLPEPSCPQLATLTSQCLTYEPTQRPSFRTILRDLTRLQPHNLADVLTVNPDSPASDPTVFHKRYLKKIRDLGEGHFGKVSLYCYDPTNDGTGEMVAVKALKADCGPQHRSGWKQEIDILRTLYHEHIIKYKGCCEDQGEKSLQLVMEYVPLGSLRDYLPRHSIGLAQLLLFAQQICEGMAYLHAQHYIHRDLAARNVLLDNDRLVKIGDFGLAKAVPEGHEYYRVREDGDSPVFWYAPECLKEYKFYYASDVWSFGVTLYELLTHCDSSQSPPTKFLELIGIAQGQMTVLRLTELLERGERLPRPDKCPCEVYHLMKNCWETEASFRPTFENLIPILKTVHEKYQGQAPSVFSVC
Serine/threonine-protein kinase 17A, sequence (Q9UEE5 whole entry): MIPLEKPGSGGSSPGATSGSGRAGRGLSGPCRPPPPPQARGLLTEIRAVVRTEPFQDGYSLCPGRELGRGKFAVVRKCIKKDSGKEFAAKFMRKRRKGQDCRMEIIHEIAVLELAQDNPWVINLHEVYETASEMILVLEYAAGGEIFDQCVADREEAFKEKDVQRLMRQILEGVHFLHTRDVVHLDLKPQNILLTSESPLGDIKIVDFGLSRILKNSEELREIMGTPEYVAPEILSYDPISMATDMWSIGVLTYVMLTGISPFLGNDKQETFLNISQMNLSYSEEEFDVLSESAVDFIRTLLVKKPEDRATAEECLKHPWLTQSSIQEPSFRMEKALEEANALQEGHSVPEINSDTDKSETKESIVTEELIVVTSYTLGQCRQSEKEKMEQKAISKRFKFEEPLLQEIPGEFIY
Serine/threonine-protein kinase PLK2 (Homo sapiens), sequence (Q9NYY3 whole entry, looked up): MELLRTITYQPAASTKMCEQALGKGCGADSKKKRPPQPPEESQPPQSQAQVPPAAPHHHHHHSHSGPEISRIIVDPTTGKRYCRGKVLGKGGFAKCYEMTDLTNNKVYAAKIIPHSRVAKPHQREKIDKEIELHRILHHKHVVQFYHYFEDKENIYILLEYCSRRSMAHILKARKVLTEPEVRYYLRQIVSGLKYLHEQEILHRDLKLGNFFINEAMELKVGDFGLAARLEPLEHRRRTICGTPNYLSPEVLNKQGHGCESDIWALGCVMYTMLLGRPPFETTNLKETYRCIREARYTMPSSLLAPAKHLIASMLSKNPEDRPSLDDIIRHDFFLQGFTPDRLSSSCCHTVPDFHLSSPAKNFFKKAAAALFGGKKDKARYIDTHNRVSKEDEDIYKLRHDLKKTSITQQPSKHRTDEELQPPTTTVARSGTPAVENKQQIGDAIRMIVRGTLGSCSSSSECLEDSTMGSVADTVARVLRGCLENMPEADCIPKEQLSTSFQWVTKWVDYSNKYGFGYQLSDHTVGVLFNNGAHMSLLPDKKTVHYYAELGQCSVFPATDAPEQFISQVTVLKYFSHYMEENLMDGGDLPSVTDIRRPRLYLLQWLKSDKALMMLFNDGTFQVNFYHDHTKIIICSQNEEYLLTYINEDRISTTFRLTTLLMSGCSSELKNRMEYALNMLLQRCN
Ribosomal protein S6 kinase beta-1 (Homo sapiens), sequence (P23443 whole entry, looked up): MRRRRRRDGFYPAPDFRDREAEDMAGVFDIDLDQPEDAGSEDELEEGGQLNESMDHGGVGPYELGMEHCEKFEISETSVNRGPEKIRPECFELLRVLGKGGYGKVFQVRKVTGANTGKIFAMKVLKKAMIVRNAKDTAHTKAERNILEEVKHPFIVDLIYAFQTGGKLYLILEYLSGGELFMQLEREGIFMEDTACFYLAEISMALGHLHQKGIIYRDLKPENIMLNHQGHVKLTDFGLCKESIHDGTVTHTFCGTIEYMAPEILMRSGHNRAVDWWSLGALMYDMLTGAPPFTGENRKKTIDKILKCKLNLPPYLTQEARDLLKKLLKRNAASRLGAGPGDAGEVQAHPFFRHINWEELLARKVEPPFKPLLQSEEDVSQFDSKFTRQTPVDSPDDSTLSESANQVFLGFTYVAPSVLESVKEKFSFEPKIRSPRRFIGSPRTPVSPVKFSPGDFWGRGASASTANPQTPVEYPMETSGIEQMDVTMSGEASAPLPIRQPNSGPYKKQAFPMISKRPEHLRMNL
Serine/threonine-protein kinase TAO1 (Homo sapiens), sequence (Q7L7X3 whole entry): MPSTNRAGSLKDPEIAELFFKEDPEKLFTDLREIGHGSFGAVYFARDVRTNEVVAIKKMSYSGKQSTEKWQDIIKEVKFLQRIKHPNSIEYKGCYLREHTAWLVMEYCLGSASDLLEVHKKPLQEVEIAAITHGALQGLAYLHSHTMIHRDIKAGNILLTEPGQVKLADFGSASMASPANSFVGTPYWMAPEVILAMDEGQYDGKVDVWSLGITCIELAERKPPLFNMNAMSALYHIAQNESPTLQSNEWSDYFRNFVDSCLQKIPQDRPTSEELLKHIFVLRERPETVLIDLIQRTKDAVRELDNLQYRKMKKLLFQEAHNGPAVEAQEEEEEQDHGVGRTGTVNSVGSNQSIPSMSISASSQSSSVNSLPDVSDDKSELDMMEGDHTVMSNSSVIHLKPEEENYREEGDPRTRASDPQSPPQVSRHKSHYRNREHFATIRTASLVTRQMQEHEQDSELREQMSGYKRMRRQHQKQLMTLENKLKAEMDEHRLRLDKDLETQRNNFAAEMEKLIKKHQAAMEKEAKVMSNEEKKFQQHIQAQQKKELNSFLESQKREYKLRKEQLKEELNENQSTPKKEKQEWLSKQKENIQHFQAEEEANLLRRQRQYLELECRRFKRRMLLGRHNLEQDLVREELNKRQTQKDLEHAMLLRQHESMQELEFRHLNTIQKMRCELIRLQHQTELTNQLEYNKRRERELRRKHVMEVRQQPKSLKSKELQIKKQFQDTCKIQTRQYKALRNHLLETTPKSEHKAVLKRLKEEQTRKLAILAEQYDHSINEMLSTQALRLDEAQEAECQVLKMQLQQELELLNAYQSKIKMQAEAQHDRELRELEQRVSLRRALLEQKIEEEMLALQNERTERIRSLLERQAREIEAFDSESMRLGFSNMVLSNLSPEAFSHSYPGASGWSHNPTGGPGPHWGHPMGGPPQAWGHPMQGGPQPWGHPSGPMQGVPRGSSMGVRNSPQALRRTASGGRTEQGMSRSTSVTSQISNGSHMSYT
Serine/threonine-protein kinase PLK3, sequence (Q9H4B4 whole entry, looked up): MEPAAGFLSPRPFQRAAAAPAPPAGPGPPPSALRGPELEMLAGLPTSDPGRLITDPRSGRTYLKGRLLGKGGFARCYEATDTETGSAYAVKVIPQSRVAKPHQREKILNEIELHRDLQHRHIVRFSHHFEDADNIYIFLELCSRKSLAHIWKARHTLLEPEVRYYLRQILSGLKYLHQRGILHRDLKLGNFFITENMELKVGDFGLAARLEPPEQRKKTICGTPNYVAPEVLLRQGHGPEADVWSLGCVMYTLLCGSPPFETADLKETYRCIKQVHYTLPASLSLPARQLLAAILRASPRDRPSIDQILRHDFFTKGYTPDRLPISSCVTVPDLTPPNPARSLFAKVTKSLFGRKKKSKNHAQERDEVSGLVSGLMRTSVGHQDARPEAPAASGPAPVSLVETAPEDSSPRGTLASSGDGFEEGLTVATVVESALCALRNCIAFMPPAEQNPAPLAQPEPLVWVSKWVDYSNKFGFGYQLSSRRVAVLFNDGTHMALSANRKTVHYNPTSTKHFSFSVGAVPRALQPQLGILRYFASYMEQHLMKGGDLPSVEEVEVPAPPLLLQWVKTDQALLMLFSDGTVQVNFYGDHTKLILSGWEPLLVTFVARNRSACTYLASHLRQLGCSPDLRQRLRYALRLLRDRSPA
Aurora kinase B, sequence (Q96GD4 whole entry): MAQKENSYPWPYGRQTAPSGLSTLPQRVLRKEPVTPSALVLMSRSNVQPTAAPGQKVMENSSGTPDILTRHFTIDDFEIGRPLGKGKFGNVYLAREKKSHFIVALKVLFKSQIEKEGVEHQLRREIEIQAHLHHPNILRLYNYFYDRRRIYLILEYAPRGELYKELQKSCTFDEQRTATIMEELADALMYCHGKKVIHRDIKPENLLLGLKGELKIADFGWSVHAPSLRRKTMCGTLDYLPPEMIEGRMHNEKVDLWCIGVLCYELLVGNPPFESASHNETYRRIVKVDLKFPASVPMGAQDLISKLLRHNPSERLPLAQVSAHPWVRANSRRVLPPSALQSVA

`COc1cc2ncn(-c3cc(OCc4ccccc4C(F)(F)F)c(C(N)=O)s3)c2cc1OC` [GW843682X]: the values for the % of control in experiment [1], in experiment [2] and in [3] were 0.2%, 9.9% and 1.8%, respectively.
With `CN(c1ccnc(CNc2nc(Nc3ccc4c(c3)CC(=O)N4)ncc2C(F)(F)F)n1)S(C)(=O)=O` [PF-00911705], the figures for the % of control in [4], in [5] and in experiment [6] were 3.7%, 5.7% and 4.8%, respectively.
`CCOc1cn(-c2ccc(F)cc2C)nc1C(=O)Nc1ccc(Oc2ccnc3cc(OC)c(OC)cc23)c(F)c1`: the % of control in experiment [7], in [8], in [9] and in [10] was below 10% each time.
As for `CC[C@@H]1C(=O)N(C)c2cnc(Nc3ccc(C(=O)NC4CCN(C)CC4)cc3OC)nc2N1C1CCCC1`, the % of control in experiment [11] is 4.2%; in experiment [12], 0.5%; in experiment [13], 102%.
Broadly, the IC50 is the concentration at which inhibition is half-maximal. Low values mean higher potency, high ones lower potency. In turn, `C[C@H](c1ccnc(Nc2nc3ccc(-c4cc(N(C)C)ncn4)cc3[nH]2)c1)N1CCN(C(=O)CC(F)(F)F)CC1` [BAY-985] displayed an IC50 in experiment [14] above 20000 nM.
In the case of `CN1C(=O)c2sccc2N(C)c2nc(Nc3ccc(S(N)(=O)=O)cc3)ncc21`, the IC50 in experiment [15] came to 254 nM; at Aurora kinase B it was 19.4 nM. Moreover, in experiment [16], the % of control came out at 2.6%.
In turn, `CNC(=O)c1ccc(Nc2ncc(C(F)(F)F)c(NCc3nccnc3N(C)S(C)(=O)=O)n2)cc1` [DEFACTINIB] registered a % of control in experiment [17] of 0%.
